Bridge positions count the residues as written; N and C are the ends. Square brackets hold non-standard residues; d marks the D form. Peptide text beside a SMILES is read from it.
Legend:
[1] = biological target: T1, ANP receptor (Sus scrofa, UniProt F1SFW3); test: cGMP production in ANP receptor-expressing LLC-PK1 cells; format: cell-based; details: 30 min stimulation, 10^-6M through 10^-12M, NR = No response detected
T1 construct: ANP receptor-expressing LLC-PK1 cells; endogenous in cells; host or cells: LLC-PK1 cells
T1 sequence (F1SFW3 29-1057): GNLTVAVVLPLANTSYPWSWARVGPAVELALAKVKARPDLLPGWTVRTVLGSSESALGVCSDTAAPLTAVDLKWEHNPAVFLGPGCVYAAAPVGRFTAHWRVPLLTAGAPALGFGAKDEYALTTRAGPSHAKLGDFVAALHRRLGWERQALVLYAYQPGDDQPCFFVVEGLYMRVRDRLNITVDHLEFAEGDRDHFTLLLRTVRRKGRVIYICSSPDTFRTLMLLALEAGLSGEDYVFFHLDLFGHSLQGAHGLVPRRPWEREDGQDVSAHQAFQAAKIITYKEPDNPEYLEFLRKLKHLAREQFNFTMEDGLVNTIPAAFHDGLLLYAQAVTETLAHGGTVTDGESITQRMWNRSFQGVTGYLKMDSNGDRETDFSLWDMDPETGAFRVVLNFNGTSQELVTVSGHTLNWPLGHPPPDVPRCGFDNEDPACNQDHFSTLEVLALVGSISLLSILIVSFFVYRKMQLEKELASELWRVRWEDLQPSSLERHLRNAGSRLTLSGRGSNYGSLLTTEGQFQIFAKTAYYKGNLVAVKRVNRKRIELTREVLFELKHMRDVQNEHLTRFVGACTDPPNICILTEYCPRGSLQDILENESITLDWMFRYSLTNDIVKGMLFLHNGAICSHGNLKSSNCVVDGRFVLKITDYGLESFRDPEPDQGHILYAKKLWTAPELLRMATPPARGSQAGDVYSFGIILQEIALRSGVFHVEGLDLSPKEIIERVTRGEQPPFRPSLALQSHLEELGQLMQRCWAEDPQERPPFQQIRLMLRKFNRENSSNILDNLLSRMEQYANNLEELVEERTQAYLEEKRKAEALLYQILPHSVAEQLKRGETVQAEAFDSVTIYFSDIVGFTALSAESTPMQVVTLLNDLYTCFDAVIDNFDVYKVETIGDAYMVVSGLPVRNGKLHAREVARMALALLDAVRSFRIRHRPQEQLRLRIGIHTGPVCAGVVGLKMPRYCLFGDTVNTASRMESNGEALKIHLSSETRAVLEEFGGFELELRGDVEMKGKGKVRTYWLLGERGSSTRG
Procedure: The bifunctional hormone was tested on ANP receptor-expressing LLC-PK1 cells and on MCR1 receptor-expressing B16-F1 cells. Both cell types were cultured 24 hours before the stimulation, in 96-well plates, at a concentration of 1.0×10^5 cells/ml. Before stimulation, cells were starved 2 hours in DPBS only and incubated 10 min in assay buffer (DPBS containing 20 mM HEPES, 0.1% BSA and 500 μM IBMX). The dose response curve of the bifunctional hormone was done for 30 minutes with concentrations of 10^−6M through 10^−12M. Supernatant was collected and cAMP (B16-F1) or cGMP (LLC-PK1) was measured with a radiolabeled kit from GE Healthcare Company.

[2] = test system: normal men; details: infusion in normal men; cited from earlier work

`CC[C@H](C)[C@@H]1NC(=O)[C@H](CCCNC(=N)N)NC(=O)[C@H](CC(=O)O)NC(=O)[C@H](CCSC)NC(=O)[C@H](CCCNC(=N)N)NC(=O)CNC(=O)CNC(=O)[C@H](Cc2ccccc2)NC(=O)[C@@H](NC(=O)[C@H](CO)NC(=O)[C@H](CO)NC(=O)[C@H](CCCNC(=N)N)NC(=O)[C@H](CCCNC(=N)N)NC(=O)CNC(=O)[C@H](Cc2c[nH]c3ccccc23)NC(=O)[C@H](CCCNC(=N)N)NC(=O)[C@H](Cc2ccccc2)NC(=O)[C@H](Cc2c[nH]cn2)NC(=O)[C@H](CCC(=O)O)NC(C)=O)CSSC[C@@H](C(=O)N[C@@H](CC(N)=O)C(=O)N[C@@H](CO)C(=O)N[C@@H](Cc2ccccc2)C(=O)N[C@@H](CCCNC(=N)N)C(=O)N[C@@H](Cc2ccc(O)cc2)C(N)=O)NC(=O)CNC(=O)[C@H](CC(C)C)NC(=O)CNC(=O)[C@H](CO)NC(=O)[C@H](CCC(N)=O)NC(=O)[C@H](C)NC(=O)CNC1=O` [SEQ ID NO: 41, Ac-E-H-F-R-W-G-R-R-S-S-[C-F-G-G-R-M-D-R-I-G-A-Q-S-G-L-G-C]-N-S-F-R-Y-NH2] (Ac-EHFRWGRRSSCFGGRMDRIGAQSGLGCNSFRY-NH2; disulfide 11-27) gave an EC50 [1] of 0.0089 µM.
In the case of `CC[C@H](C)[C@@H]1NC(=O)[C@H](CCCNC(=N)N)NC(=O)[C@H](CC(=O)O)NC(=O)[C@H](CCSC)NC(=O)[C@H](CCCNC(=N)N)NC(=O)CNC(=O)CNC(=O)[C@H](Cc2ccccc2)NC(=O)[C@@H](NC(=O)[C@H](CO)NC(=O)[C@H](CO)NC(=O)[C@H](CCCNC(=N)N)NC(=O)[C@H](CCCNC(=N)N)NC(=O)CNC(=O)[C@H](Cc2c[nH]c3ccccc23)NC(=O)[C@H](CCCNC(=N)N)NC(=O)[C@@H](Cc2ccccc2)NC(=O)[C@H](Cc2c[nH]cn2)NC(=O)[C@H](CCC(=O)O)NC(C)=O)CSSC[C@@H](C(=O)N[C@@H](CC(N)=O)C(=O)N[C@@H](CO)C(=O)N[C@@H](Cc2ccccc2)C(=O)N[C@@H](CCCNC(=N)N)C(=O)N[C@@H](Cc2ccc(O)cc2)C(N)=O)NC(=O)CNC(=O)[C@H](CC(C)C)NC(=O)CNC(=O)[C@H](CO)NC(=O)[C@H](CCC(N)=O)NC(=O)[C@H](C)NC(=O)CNC1=O` [SEQ ID NO: 42, Ac-E-H-f-R-W-G-R-R-S-S-[C-F-G-G-R-M-D-R-I-G-A-Q-S-G-L-G-C]-N-S-F-R-Y-NH2] (Ac-EH[dF]RWGRRSSCFGGRMDRIGAQSGLGCNSFRY-NH2; disulfide 11-27), the EC50 [1] is reported as 0.502 µM.
In the case of `CC[C@H](C)[C@@H]1NC(=O)[C@H](CCCNC(=N)N)NC(=O)[C@H](CC(=O)O)NC(=O)[C@H](CCSC)NC(=O)[C@H](CCCNC(=N)N)NC(=O)CNC(=O)CNC(=O)[C@H](Cc2ccccc2)NC(=O)[C@@H](NC(=O)[C@H](CCSC)NC(=O)[C@@H]2CCCN2C(=O)[C@H](CCCCN)NC(=O)CNC(=O)[C@H](Cc2c[nH]c3ccccc23)NC(=O)[C@H](CCCNC(=N)N)NC(=O)[C@H](Cc2c[nH]cn2)NC(C)=O)CSSC[C@@H](C(=O)N[C@@H](CC(N)=O)C(=O)N[C@@H](CO)C(=O)N[C@@H](Cc2ccccc2)C(=O)N[C@@H](CCCNC(=N)N)C(=O)N[C@@H](Cc2ccc(O)cc2)C(N)=O)NC(=O)CNC(=O)[C@H](CC(C)C)NC(=O)CNC(=O)[C@H](CO)NC(=O)[C@H](CCC(N)=O)NC(=O)[C@H](C)NC(=O)CNC1=O` [SEQ ID NO: 43, Ac-H-R-W-G-K-P-M-[C-F-G-G-R-M-D-R-I-G-A-Q-S-G-L-G-C]-N-S-F-R-Y-NH2] (Ac-HRWGKPMCFGGRMDRIGAQSGLGCNSFRY-NH2; disulfide 8-24), the EC50 [1] is reported as 0.0868 µM.
In the case of “S-P-K-M-V-Q-G-S-G-[C-P-G-R-K-M-D-R-I-S-S-S-S-G-L-G-C]-K-V-L-R-R-H [BNP]”, the “increase in sodium excretion” value [2] is listed as 2 fold and the “reduction in plasma renin, angiotensin II and aldosterone secretion” value [2] is listed as 50%.
